Test results from publication PMC7542159, “Receptor occupancy of dual glucagon-like peptide 1/glucagon receptor agonist SAR425899 in individuals with type 2 diabetes” (Scientific Reports, 2020).

How the values were obtained:
[1] = Plasma pharmacokinetics of SAR425899 (LC-MS/MS); conditions: human, in vivo, sc, 0.2 mg
Procedure: Blood samples were collected at multiple time points after the last dose on Day 20 for measurement of SAR425899 in plasma using a liquid chromatography with tandem mass spectrometry (LC–MS/MS) method. Peak plasma concentrations (Cmax), time to Cmax (tmax) and area under the plasma concentration versus time curve for the last measurable plasma concentration (AUC0–last) were calculated using noncompartmental methods.

[2] = Liver volume on CT images; format: in vivo, human; conditions: for Liver volume change: Fig. 2B
Procedure: Both factors could potentially quantitatively impact the binding of [^68Ga]Ga-DO3A-Tuna-2 in the liver. Thus, the SUV55min at follow-up investigation was proportionally corrected for the decrease in liver volume compared to baseline. Additionally, SUV55min at baseline was corrected to the plasma glucagon value of the individual at follow-up to enable direct comparison between the PET assessments.
Marked weight loss and glucose lowering, as observed in this study, may have rapid and meaningful effects on the hepatic volume in short time periods, due primarily to the depletion of liver glycogen, which in turn bind large amounts of water. A reduction of the liver volume due to decrease in glycogen and water could likely affect the PET data by increasing the hepatocyte density (and in turn the GCGR density) per voxel. The liver volume was therefore assessed on CT images, and the [^68Ga]Ga-DO3A-Tuna-2 liver uptake SUV55min data corrected for the corresponding change in hepatic volume on an individual level. However, this correction may also introduce errors especially since there are inhomogeneities in GCGR expression levels in different parts of the liver (Fig. 3A,C,E). Furthermore, this correction assumes negligible changes on GCGR expression on hepatocytes over time. The occupancy data before the different corrections are therefore reported separately in Fig. 4C,D. Further corrections regarding the potentially non-isotropic GCGR expression could be attempted, but regardless the impact on the occupancy is expected to be low, while potentially introducing noise to the assessment. [^68Ga]Ga-DO3A-Exendin-4 uptake in pancreas is not expected to require correction, as no similar mechanism for rapid volume change is present in pancreas.

human GCGR = target: T1, human GCGR (Homo sapiens, UniProt P47871); assay: In vitro displacement of [^68Ga]Ga-DO3A-Tuna-2 in HEK293 cells overexpressing the human GCGR; format: binding; conditions: pre-treatment with 50 µM, three independent experiments
T1 construct: expressed in transfected cells; host or cells: HEK293
T1 sequence (P47871 26-477): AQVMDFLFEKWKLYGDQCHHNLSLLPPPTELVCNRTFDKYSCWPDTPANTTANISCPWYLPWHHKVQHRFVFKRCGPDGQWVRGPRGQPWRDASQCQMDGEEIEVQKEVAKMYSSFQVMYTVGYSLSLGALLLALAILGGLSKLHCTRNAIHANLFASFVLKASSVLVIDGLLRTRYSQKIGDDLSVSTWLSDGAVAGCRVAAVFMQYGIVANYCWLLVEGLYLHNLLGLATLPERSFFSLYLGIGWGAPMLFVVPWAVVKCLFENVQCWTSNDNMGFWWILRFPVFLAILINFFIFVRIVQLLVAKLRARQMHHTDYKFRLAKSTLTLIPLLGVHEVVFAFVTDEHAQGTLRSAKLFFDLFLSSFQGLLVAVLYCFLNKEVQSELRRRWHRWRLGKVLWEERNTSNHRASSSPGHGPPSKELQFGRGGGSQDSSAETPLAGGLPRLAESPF
Procedure: Figure 5 [^68Ga]Ga-DO3A-Tuna-2 was displaced by SAR525899 in vitro. HEK293 cells overexpressing the human GCGR were incubated with either [^68Ga]Ga-DO3A-Tuna-2 alone, or following pre-treatment with 50 µM SAR525899. Data from three independent repeated experiments. Stars indicate p < 0.001 as assessed by a Students t-test.

GLP1R = conditions: higher at GLP1R; cited from earlier work
From the text: Noteworthy, the in vitro binding affinity for SAR425899 at the GLP1R was ~ fivefold higher than at the GCGR. This ratio of binding capacities has been chosen to prevent unwanted glucagon effects like increase of blood glucose. In fact, an increase of blood glucose has not been observed so far in a clinical setting. […] The exposure achieved with this dose in humans, however, might be too low to ...

CCCCCCCCCCCCCCCC(=O)N[C@@H](CCC(=O)N[C@@H](CCC(=O)NCCCC[C@H](NC(=O)[C@H](CCC(N)=O)NC(=O)[C@H](CCCCN)NC(=O)[C@H](CO)NC(=O)[C@H](CC(C)C)NC(=O)[C@H](CC(=O)O)NC(=O)[C@H](CO)NC(=O)[C@@H](NC(=O)[C@H](Cc1ccccc1)NC(=O)[C@@H](NC(=O)CNC(=O)[C@H](CCC(N)=O)NC(=O)[C@@H](CO)NC(=O)[C@@H](N)Cc1c[nH]cn1)[C@@H](C)O)[C@@H](C)O)C(=O)N[C@@H](CCC(=O)O)C(=O)N[C@@H](CO)C(=O)N[C@@H](CCCCN)C(=O)N[C@@H](C)C(=O)N[C@@H](C)C(=O)N[C@@H](CCC(N)=O)C(=O)N[C@@H](CC(=O)O)C(=O)N[C@@H](Cc1ccccc1)C(=O)N[C@H](C(=O)N[C@@H](CCC(=O)O)C(=O)N[C@@H](Cc1c[nH]c2ccccc12)C(=O)N[C@@H](CC(C)C)C(=O)N[C@@H](CCCCN)C(=O)N[C@@H](C)C(=O)NCC(=O)NCC(=O)N1CCC[C@H]1C(=O)N[C@@H](CO)C(=O)N[C@@H](CO)C(=O)NCC(=O)N[C@@H](C)C(=O)N1CCC[C@H]1C(=O)N1CCC[C@H]1C(=O)N1CCC[C@H]1C(=O)N[C@@H](CO)C(N)=O)[C@@H](C)CC)C(=O)O)C(=O)O [SAR425899]
AUC(0-t) [1]: 217 ng·h/mL | Cmax [1]: 25.1 ng/mL | Tmax [1]: 7.62 h | Liver volume change ([2]; 0.12mg): -0.8% | Liver volume change ([2]; 0.2mg): -10.4% | decrease in liver volume ([2]; under treatment with SAR425899, average (SD)): 10.4 (6.1) % | liver volume at follow up ([2]; under treatment with SAR425899, mean (SD), baseline 2.14 (0.45) dm^3): 1.91 (0.36) dm^3 | displacement of [^68Ga]Ga-DO3A-Tuna-2 (human GCGR; p < 0.001): competes for the same binding site | displacement of [^68Ga]Ga-DO3A-Tuna-2 (human GCGR; p < 0.001, listed as SAR525899): displaced | in vitro binding affinity at the GLP1R relative to the GCGR (GLP1R): ~ fivefold
